US10966423B2, “Anti-microbial agent comprising xanthohumol and the use thereof in food products” (Purac Biochem B.V., priority 2015, dated 2021)
≈ marks a conversion by molar mass, not a printed value. Read-outs that look alike come from different tables or passages of the source.

Tests used:
Type in all cases: cell-based
[1] = test system: lactic acid bacteria (L. curvatus, 3×L. plantarum and L. mesenteroides); experiment: shelf life of sausages inoculated with lactic acid bacteria
Description: Sausages were produced according to the following procedure. The ingredients defined as weight percentages in Table 5 were used for the preparation of the sausage. Xanthoflav was used as such, without a preparation step such as applied in Example 1.
First the meat was shredded, and salt, tri polyphosphate and half of the water was added. After mixing very well, the other ingredients were added. The meat dough was put in a cook crimp bag and vacuum sealed. After sealing the bags were canned. The sausages were cooked in a cooking cabinet for 120 minutes at 75° C. and afterwards cooled down to 15° C. […]
In a first step an inoculum was prepared as follows. Cultures of lactic acid bacteria (L. curvatus, 3×L. plantarum and L. mesenteroides) are started from plate and incubated overnight at 30° C. in screw-capped tubes (100×16 mm) containing 10 ml MRS broth.
Sausages were inoculated to a final level of about 1000 (10^3) CFU per g product. The sausage was inoculated with 1% Inoculum (approximately 5 ml Inoculum per 500 gram ground meat). […]
Fifty μl of the homogenate or dilution was subsequently plated on MRS agar using an Eddyjet type 1.23 spiral plater (IUL Instruments, Barcelona, Spain). […] The colonies were counted with the Acolyte Supercount automatic colony counter (Synoptics, Cambridge, UK) using the Synoptics software package. […]

[2] = test system: Lactobacillus acidophilus; experiment: minimum inhibitory concentration on lactic acid bacteria, overnight in MRS medium; conditions: DSM20079, strain DSM 20079, 30° C., 10^5 cfu/ml, read-out: MIC calculated to xanthohumol
Description: (§1) One part xanthohumol Xantho-Flav Extract (with 2% of xanthohumol) on diatomaceous earth is incubated with 9 parts of hot water at 100° C., boiling for <1 minute while vigorously shaking. After incubation, solid material is discarded. This way, a stock solution with 10% of Xanthoflav or about 0.2% xanthohumol (2 mg/ml) is obtained, which is used in the following examples.
(§2) For testing the anti-microbial activity a test composition comprising xanthohumol was applied. The test composition was prepared as follows. At the highest concentration 100 μl of the xanthohumol stock solution at 2 mg/ml in water (See Example 1) was added to 100 μl of 2 times concentrated MRS medium, providing a test composition comprising 1 mg/ml by weight xanthohumol in MRS medium.
(§3) Pre-cultures of test bacteria were cultured using standard techniques. Bacteria were cultured in MRS medium 48 hrs before the start of the experiments.
(§4) Five μl of the bacterium pre-cultures was brought in 200 μl of test medium (medium+component+water) and mixed with a concentration series of the test composition comprising xanthohumol. Final bacterium density at the start of the overnight experiment was 10^5 cfu/ml. Xanthohumol was tested up to a concentration of 0.01 mg/ml (based on an addition level of up to 0.05% w/w of Xanthoflav). Negative control was inoculated broth, positive control was inoculated MRS medium. Bacterium cultures were cultured overnight at 30° C., under constant shaking. After incubation, the minimum inhibitory concentration for each test organism was scored (Table 1).

[3] = test system: Leuconostoc mesenteroides; experiment: as above; conditions: strain AR049, 30° C., 10^5 cfu/ml, read-out: MIC calculated to xanthohumol
Description: as §1, §2, §3, §4

Lactobacilllus curvatus = experiment: as above; conditions: 10^5 cfu/ml
Description: as §1, §2, §3, §4

Lactobacillus farciminis = experiment: as above; conditions: Companilactobacillus farciminis, strain AR053, 30° C., 10^5 cfu/ml, read-out: MIC calculated to xanthohumol
Description: as §1, §2, §3, §4

Lactobacillus brevis = experiment: as above; conditions: Levilactobacillus brevis, 10^5 cfu/ml, read-out: MIC calculated to xanthohumol
Description: as §1, §2, §3, §4

Lactobacillus plantarum [4] = experiment: as above; conditions: Lactiplantibacillus plantarum, 10^5 cfu/ml, read-out: MIC calculated to xanthohumol
Description: as §1, §2, §3, §4

Lactobacillus plantarum [5] = experiment: growth of Lactobacillus plantarum in food products (baby food, pasta sauce); conditions: for Lactobacillus plantarum cell density: xanthohumol 0.004 mg/ml
Description: In this example, the influence of xanthohumol on growth of Lactobacillus plantarum in baby food and in pasta sauce was assessed. For this purpose the baby food was sterilized and the pH was adjusted at pH 4.8, and the pasta sauce was sterilized and the pH was adjusted to pH 4.2. At time-point t=0, three samples of both the baby food and the pasta sauce were inoculated with a Lactobacillus plantarum starter culture, at a final Lactobacillus cell density of approximately 1*10^4 cells/ml. For the baby food and the pasta sauce, one sample each was inoculated in the presence of 0.2% by weight xanthohumol composition to a final concentration of xanthohumol in the food product of 0.004 mg/ml. Lactobacillus plantarum cell density was determined in the food products at t=0 and at t=24 hours.

Penicillium roquefortii [6] = experiment: visible growth of mould hyphae in MEA broth; conditions: MEA broth pH 3.5, 14 days, 25° C., 10^4 spores per ml; xanthohumol 0.008 wt %, propionate 0.085 wt %
Description: (§5) Two molds, Aspergillus Niger and Penicillium roquefortii were tested on the combinatory effect of xanthohumol in combination with propionate. MEA broth was inoculated with spores of the fungi to a concentration of 10^4 spores per ml. In this example use has been made of the stock solution of xanthohumol as has been described in example 1 above. 4 ml of said stock solution was added to 96 ml of broth to obtain a 0.008% w/w solution in broth.
(§6) Propionate was added to an end concentration of 0.085% of propionate in broth. Also a solution was made with 0.008% w/w of xanthohumol and 0.085% of propionate in broth. As a control experiment broth without antimicrobial components was used. The pH of all media was set to 3.5. After 14 days of incubation at 25° C., the broth was inspected for visible growth of mould hyphae.

Aspergillus Niger = experiment: visible growth of mould hyphae in MEA broth; conditions: MEA broth pH 3.5, 14 days, 25° C., 10^4 spores per ml; xanthohumol 0.008 wt %, propionate 0.085 wt %
Description: as §5, §6

Penicillium roquefortii [7] = experiment: mold outgrowth (OD) in semi-solid MEA agar, xanthohumol/calcium propionate gradient; conditions: FIG. 1; day 13, pH 6; calcium propionate 0-0.5%, xanthohumol 0-0.00195%
Description: (§7) Five molds, Penicillium roquefortii, Aspergillus flavus, Fusarium oxysporum, Paecilomyces variotii, and Mucor plumbeus, were tested on the combinatory effect of xanthohumol combined with calcium propionate. In this example use has been made of a stock solution of 0.52% w/w XanthoFlav (equivalent to 0.0104% w/w xanthohumol) prepared in a similar manner as that described in example 1 above, as well as a stock solution of calcium propionate at 1.6% w/w. A modified semi-solid MEA agar was prepared by mixing 50 g of Malt Extract broth (Oxoid) with 7.5 g of Bacteriological Agar No. 1 (Oxoid) to create a 2× reduced agar MEA. This was autoclaved at 120° C. for 15 minutes. Bottles of this MEA were held at 50° C. until ready for inoculation, at which point they were inoculated with a single strain of the above listed molds at approximately 10^4 spores per ml. This level of inoculation ensures 500-1000 spores per well in the 96 well plate. All media was set to pH 6.
(§8) The 2×MEA was mixed with the stock solutions of xanthohumol, calcium propionate, and sterilized H2O as a diluent in 96 well plates using an automated plate filler to create a concentration gradient of calcium propionate ranging from 0% to 0.5% along one axis and xanthohumol from 0% to 0.00195% along the other axis. Wells containing 0% of both antimicrobials served as a control. This allowed for testing approximately 24 different combinations of the two antimicrobials on one plate. Each well contained 75 μL of inoculated 2× reduced agar MEA, 75 μL of a mix of antimicrobials/diluent, and was capped with 75 μL of paraffin oil after the agar had set. Ninety-six well plates were then sealed with an oxygen permeable membrane to prevent contamination of wells.
(§9) OD measurements were taken approximately once a day, and outgrowth (measured by an increase in OD) was tracked over time. Measurements at the final reading (day 13) were placed in a 3D graph to visualize the additive effects of the two antimicrobials as levels of each increased across the plate.

Mucor plumbeus = experiment: as above; conditions: FIG. 5; day 13, pH 6; calcium propionate 0-0.5%, xanthohumol 0-0.00195%
Description: as §7, §8, §9

Paecilomyces variotii = experiment: as above; conditions: FIG. 3; day 13, pH 6; calcium propionate 0-0.5%, xanthohumol 0-0.00195%
Description: as §7, §8, §9

Aspergillus flavus = experiment: as above; conditions: FIG. 4; day 13, pH 6; calcium propionate 0-0.5%, xanthohumol 0-0.00195%
Description: as §7, §8, §9

Fusarium oxysporum = experiment: as above; conditions: FIG. 2; day 13, pH 6; calcium propionate 0-0.5%, xanthohumol 0-0.00195%
Description: as §7, §8, §9

## C[C@@H]1OC(=O)[C@H](C)OC1=O [Nr 3: 0.8% Lactide, Lactide]
[1]; inoculated about 10^3 CFU per g, vacuum sealed, stored at 7° C., control 8.0
  Shelf life of sausages, Days till 10^7 cfu/g: 12.5 Days
[1]; sausages stored at 7° C.
  shelf life improvement as compared to the control: about 4 days

## COc1cc(O)c(CC=C(C)C)c(O)c1C(=O)/C=C/c1ccc(O)cc1 [xanthohumol]
[2]
  MIC: 10 µg/mL (≈ 28.2 µM)
[3]
  MIC: 2 µg/mL (≈ 5.64 µM)
Lactobacilllus curvatus; strain AR095, 30° C.
  MIC calculated to xanthohumol: 10 µg/mL (≈ 28.2 µM)
Lactobacilllus curvatus; strain Zand 2, 30° C., read-out: MIC calculated to xanthohumol
  MIC: 10 µg/mL (≈ 28.2 µM)
Lactobacillus farciminis
  MIC: 4 µg/mL (≈ 11.3 µM)
Lactobacillus brevis; LMG6906, strain LMG 6906, 30° C.
  MIC: 2 µg/mL (≈ 5.64 µM)
Lactobacillus brevis; strain AR043, 30° C.
  MIC: 2 µg/mL (≈ 5.64 µM)
Lactobacillus plantarum [4]; DSM20174, strain DSM 20174, 30° C.
  MIC: 4 µg/mL (≈ 11.3 µM)
Lactobacillus plantarum [4]; strain AR052, 30° C.
  MIC: 2 µg/mL (≈ 5.64 µM)
Lactobacillus plantarum [5]; baby food pH 4.8, 0 h
  Lactobacillus plantarum cell density: 3.8 × 10^4
Lactobacillus plantarum [5]; baby food pH 4.8, 24 h, control 3 × 10^7
  Lactobacillus plantarum cell density: 3 × 10^4
Lactobacillus plantarum [5]; in baby food and pasta sauce
  inhibitory effect on Lactobacillus plantarum: strong inhibitory effect
Lactobacillus plantarum [5]; pasta sauce pH 4.2, 0 h
  Lactobacillus plantarum cell density: 3 × 10^4
Lactobacillus plantarum [5]; pasta sauce pH 4.2, 24 h, control 6 × 10^5
  Lactobacillus plantarum cell density: <100
Penicillium roquefortii [6]
  visible growth of mould hyphae: Growth
Aspergillus Niger
  visible growth of mould hyphae: Growth
Penicillium roquefortii [7]
  Inhibition of P. roquefortii (outgrowth by OD): inhibiting effect by itself
Mucor plumbeus
  Inhibition of M plumbeus (outgrowth by OD): inhibiting effect by itself
Paecilomyces variotii
  Inhibition of P. variotii (outgrowth by OD): inhibiting effect by itself
Aspergillus flavus
  Inhibition of A. flavus (outgrowth by OD): inhibiting effect by itself
Fusarium oxysporum
  Inhibition of F. oxysporum (outgrowth by OD): inhibiting effect by itself

## CCC(=O)O [propionate, reference compound]
Penicillium roquefortii [6]
  visible growth of mould hyphae: Growth
Aspergillus Niger
  visible growth of mould hyphae: Growth
